Reference: ChEMBL document CHEMBL1201862, “PubChem BioAssay data set” (2004)
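Dose response: 5 concentrations. Exposure: 48 h. Format: 96-well plates. Endpoint: linear interpolation; highest concentration if not reached. At the GI50, growth is halved.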 The source made the active and inactive calls. Rule as the data show it: active = GI50 up to about 1.1 µM and inactive = higher. Where a SMILES comes first, the peptide text is derived from it. The star is where a group is joined. Fmoc = O=C(OCC1c2ccccc2-c2ccccc21)*; Boc = CC(C)(C)OC(=O)*

How the values were obtained:
Assay in all cases: NCI tumour cell line growth inhibition, 48 h
[1] = tested on: NCI-H23
[2] = tested on: CAKI-1
[3] = tested on: IGROV-1
[4] = tested on: EKVX
[5] = tested on: SF-268
[6] = tested on: Malme-3M
[7] = tested on: HOP-62
[8] = tested on: HCC 2998
[9] = tested on: HCT-116
[10] = tested on: SK-MEL-2
[11] = tested on: MDA-N
[12] = tested on: OVCAR-3
[13] = tested on: OVCAR-8
[14] = tested on: LOX IMVI
[15] = tested on: UACC-62
[16] = tested on: CCRF-CEM
[17] = tested on: DU-145
[18] = tested on: MDA-MB-435
[19] = tested on: TK-10
[20] = tested on: NCI-H522

Measured: GI50

O=C(CC1C(=O)Nc2ccccc2[S+]1[O-])Nc1cccc(Cl)c1 (stereo unspecified)
inactive: [1] > 44.9 µM | [2] 20.7 µM | [3] > 37.5 µM | [4] > 47.4 µM | [5] 55.1 µM | [6] > 55.6 µM | [7] 25.5 µM | [8] > 47.5 µM | [9] 31.6 µM | [10] 55.5 µM | [11] 18.6 µM | [12] 32.7 µM | [13] 33 µM | [14] > 100 µM | [15] > 43.1 µM | [16] > 35.4 µM | [17] 32.5 µM | [18] 27.9 µM | [19] > 58.9 µM

CCN1C(=O)C(=C/C=C/c2ccc([N+](=O)[O-])cc2)C(=O)N(CC)C1=S
inactive: [1] 18.2 µM | [2] 26.4 µM | [3] 15.1 µM | [4] 21 µM | [5] 19.3 µM | [7] 19.1 µM | [8] 43.4 µM | [9] 17.6 µM | [10] 23.8 µM | [11] 24.4 µM | [12] 17.8 µM | [13] 20.9 µM | [14] 18.3 µM | [15] 18.9 µM | [16] 31.8 µM | [17] 17.6 µM | [18] 23.4 µM | [19] 19.4 µM

COc1cc(C=C2C(=O)NC(=S)NC2=O)cc(OC)c1OC
inactive: [1] > 100 µM | [2] > 100 µM | [3] > 100 µM | [4] > 100 µM | [5] > 100 µM | [6] > 100 µM | [7] > 100 µM | [8] > 100 µM | [9] > 100 µM | [10] > 100 µM | [11] > 100 µM | [12] > 100 µM | [13] > 100 µM | [14] > 100 µM | [15] > 100 µM | [16] > 100 µM | [17] > 100 µM | [18] > 100 µM | [19] > 100 µM

O=C1C(Cl)=C(Cl)C(=O)C2=C1C1c3ccccc3C2c2ccccc21
inactive: [1] 46.3 µM | [3] > 100 µM | [4] > 100 µM | [5] > 100 µM | [6] 24 µM | [7] 28.9 µM | [8] 63.8 µM | [9] 55.3 µM | [10] > 100 µM | [11] > 100 µM | [12] 36.1 µM | [13] > 100 µM | [15] 30.5 µM | [16] 59 µM | [17] > 100 µM | [18] 77.4 µM | [20] 18.7 µM | [19] 83.9 µM

O=C(O)c1ccccc1-c1ccccc1C(=O)c1ccccc1
inactive: [1] > 100 µM | [2] > 100 µM | [3] > 100 µM | [4] > 100 µM | [5] > 100 µM | [6] > 100 µM | [7] > 100 µM | [9] > 100 µM | [10] > 100 µM | [11] > 100 µM | [12] > 100 µM | [13] > 100 µM | [14] > 100 µM | [15] > 100 µM | [16] > 100 µM | [17] > 100 µM | [18] > 100 µM | [20] > 100 µM | [19] > 100 µM

O=S1(=O)Cc2ccc3c4c2-c2c(ccc5ccc(c-4c25)CS(=O)(=O)C3)C1
inactive: [3] 29.8 µM | [4] 89.1 µM | [5] 53.1 µM | [6] > 100 µM | [7] > 100 µM | [8] > 100 µM | [9] 46.3 µM | [10] > 100 µM | [11] > 100 µM | [12] > 100 µM | [13] 90.2 µM | [14] 44.6 µM | [15] 87.1 µM | [17] > 100 µM | [18] > 100 µM | [20] 46.8 µM | [19] 79.6 µM

Cc1cccc(N2C(=O)C3c4[nH]c5ccccc5c4C4CCC(C(C)(C)C)CC4C3C2=O)c1C (stereo unspecified)
inactive: [1] > 100 µM | [2] > 100 µM | [3] > 100 µM | [4] 29.7 µM | [6] > 100 µM | [7] > 100 µM | [8] > 100 µM | [9] 28.7 µM | [10] > 100 µM | [11] > 100 µM | [12] > 100 µM | [13] 38.9 µM | [14] > 100 µM | [15] > 100 µM | [16] 56.6 µM | [17] > 100 µM | [18] > 100 µM | [19] > 100 µM

CC1=NNC(=O)C1C1CC(c2c[nH]c3ccccc23)=NN=C1Cl (stereo unspecified)
inactive: [1] 39.4 µM | [2] > 100 µM | [3] 20.6 µM | [4] 70.8 µM | [5] 55.6 µM | [6] > 100 µM | [7] > 100 µM | [9] 44.3 µM | [10] > 100 µM | [11] 54.7 µM | [12] 62.1 µM | [13] > 100 µM | [14] 33.3 µM | [15] 85.7 µM | [16] 25.8 µM | [17] > 100 µM | [18] 48.9 µM | [20] 45.8 µM | [19] > 100 µM

CC(C)(C)OC(=O)NCCCCC(NC(=O)C(Cc1c[nH]c2ccccc12)NC(=O)OCC1c2ccccc2-c2ccccc21)C(=O)O (stereo unspecified) (Fmoc-Trp-Lys(Boc)-OH; configuration not given here)
inactive: [1] 31 µM | [2] 17.1 µM | [3] 52.2 µM | [4] > 100 µM | [5] 32.5 µM | [6] 47.8 µM | [7] 39.5 µM | [8] 40.6 µM | [9] 32 µM | [10] 23.1 µM | [11] 35.9 µM | [12] 18.2 µM | [13] 44.4 µM | [14] 21.6 µM | [15] 20.9 µM | [16] 24.7 µM | [17] 76.4 µM | [18] 49.5 µM | [19] > 100 µM

Cc1cc(O)c2c(c1)C(C1OC(CO)C(O)C(O)C1O)c1cc(O)cc(O)c1C2=O (stereo unspecified)
inactive: [1] > 100 µM | [3] > 100 µM | [4] > 100 µM | [5] > 100 µM | [6] > 100 µM | [7] > 100 µM | [8] > 100 µM | [9] > 100 µM | [11] > 100 µM | [12] > 100 µM | [13] > 100 µM | [15] > 100 µM | [16] > 100 µM | [17] > 100 µM | [18] > 100 µM | [19] > 100 µM

CCOC(=O)c1cn(CC)c2cc3c(cc2c1=O)CCS3(=O)=O
inactive: [1] > 100 µM | [3] > 100 µM | [4] > 100 µM | [5] > 100 µM | [6] > 100 µM | [7] > 100 µM | [8] > 100 µM | [9] > 100 µM | [10] 19.1 µM | [11] > 100 µM | [12] > 100 µM | [13] > 100 µM | [15] > 100 µM | [16] > 100 µM | [17] > 100 µM | [18] > 100 µM | [19] > 100 µM

O=C(N/N=C(COc1ccccc1)\N=C\c1ccncc1)c1ccncc1
inactive: [1] > 100 µM | [2] > 100 µM | [3] > 100 µM | [4] > 100 µM | [5] > 100 µM | [7] > 100 µM | [8] > 100 µM | [9] > 100 µM | [10] > 100 µM | [11] > 100 µM | [12] > 100 µM | [13] > 100 µM | [14] > 100 µM | [15] > 100 µM | [16] > 100 µM | [17] > 100 µM | [18] > 100 µM | [19] > 100 µM

COC(=O)[C@]12CSC[C@H]1C[C@H](c1cccc3ccccc13)N2
inactive: [1] 91.2 µM | [2] > 100 µM | [3] 43.1 µM | [4] > 100 µM | [7] > 100 µM | [8] > 100 µM | [9] 51.6 µM | [10] > 100 µM | [11] > 100 µM | [12] > 100 µM | [13] > 100 µM | [14] 94.6 µM | [15] > 100 µM | [16] 30.2 µM | [17] 27.8 µM | [18] > 100 µM

CN(C)CCSS(=O)(=O)O
inactive: [1] > 100 µM | [2] > 100 µM | [3] > 100 µM | [4] > 100 µM | [5] > 100 µM | [6] > 100 µM | [7] 15.4 µM | [9] > 100 µM | [10] > 100 µM | [11] > 100 µM | [12] 9.16 µM | [13] > 100 µM | [14] 40.2 µM | [15] > 100 µM | [16] > 100 µM | [17] > 100 µM | [18] > 100 µM | [20] 83.9 µM | [19] > 100 µM

c1ccc([B-]2(c3ccccc3)NCCCO2)cc1
inactive: [1] 47 µM | [2] 40.6 µM | [3] 55 µM | [4] 97.5 µM | [5] > 100 µM | [6] 48.9 µM | [7] > 100 µM | [9] 35.8 µM | [10] 89.9 µM | [11] 42.7 µM | [12] 35.1 µM | [13] 70.5 µM | [14] 59.4 µM | [15] 45.4 µM | [16] 34.5 µM | [17] 72.3 µM | [18] 46.3 µM | [20] 33.4 µM | [19] 43.2 µM
